Source: publication PMC6748671, “Distribution of Small Molecular Weight Drugs into the Porcine Lens: Studies on Imaging Mass Spectrometry, Partition Coefficients, and Implications in Ocular Pharmacokinetics” (Molecular Pharmaceutics, 2019)
Read-outs that look alike come from different tables or passages of the source. Values belong to the molecule of their own block, whether it stands above or below them.

Experiments:
[1] = set-up: method as in PMID 1898917; conditions: highest Kp of previous reports; cited from earlier work
[2] = pH 7.0; cited from earlier work
[3] = cited from earlier work
[4] = In vitro lens/buffer partition coefficient (Kp), isolated porcine lens, cassette mix, LC–MS/MS; conditions: for Kp at 4 h: pig, isolated porcine lens
[5] = set-up: method as in PMID 2724118; conditions: lowest Kp of previous reports; cited from earlier work
[6] = set-up: method as in PMID 7341754, PMID 2724118; conditions: in rabbit and human; cited from earlier work
[7] = Drug distribution in the porcine lens by MALDI-IMS; conditions: for share of total lens volume into which the drugs distributed: pig, 4 h; for distribution pattern in the lens (MALDI-IMS): porcine lens, 4 h in vitro incubation
Procedure: After 4 h, the buffer was removed from the vials and the lenses were rinsed with HBSS–HEPES and gently blotted dry. The lenses were weighed, snap-frozen with liquid nitrogen in flat-bottomed plastic tubes, and then stored at −80 °C until sample preparation and analysis with MALDI-IMS. For the experiment, a smaller set of 16 drugs was used.
The frozen lenses were mounted onto a chuck using an optimal cutting temperature compound (Sakura Finetek, CA, USA) on the equatorial side. The lenses were sectioned to 10 μm thickness at −20 °C on a Leica CM Cryostat (S3050, Leica Microsystems GmbH, Germany), equipped with a FEATHER Microtome C35 blade (pfm medical, UK), and collected on a cryofilm (3C16UF, SECTION-LAB Co. Ltd. Yokohama, Japan) by modified Kawamoto method.[23] The film was subsequently mounted onto a microscopy glass slide using a double-sided copper tape. The slides were washed twice with 50 mM ammonium formate for 30 s and dried in a vacuum desiccator. The sample slides contained three lens sections from the drug mixture experiment and three blanks. […] Matrix α-cyano-4-hydroxycinnamic acid (7 mg/mL in 50% acetonitrile containing 1% trifluoro acetic acid) (Sigma-Aldrich, St. Louis, MO, USA) was added via spray deposition using 10 passes, flow rate of 100 μL/min, temperature of 77 °C, track spacing of 2.5 mm, and velocity of 1300 mm/min (HTX Industries, TM-Sprayer, NC, USA).
MALDI Fourier transform-ion cyclotron resonance (FT-ICR)-IMS was performed using a Bruker 7T solariX XR mass spectrometer (Bruker Daltonics, Germany) at a 75 μm spatial resolution.
The drugs were identified as their [M + H]^+ ions. Peak finding was performed using mass error less than 2.5 ppm. MALDI images for each detected compound were plotted using a 0.01 μ mass window. From the images of the individual drugs, the intensity profiles across a 30 pixel (2.25 mm) wide area in anterior–posterior axis were plotted with ImageJ software (National Institutes of Health, USA).

in vitro = conditions: pig
[8] = Pharmacokinetic simulation of topical timolol instillation with lens compartment; set-up: species or system rabbit
Procedure: A pharmacokinetic simulation model for rabbit was built for topical timolol instillation based on the model of Ranta et al.[25] The lens compartment, separate from the reservoir compartment, was added to the model (Figure 1). The unknown parameter values for timolol distribution clearance between aqueous humor and lens (QLENS), Kp, and clearance from tear fluid to cornea (CLTF,CO) were obtained by adjusting the values manually until the simulated concentration in the lens matched with in vivo data on timolol distribution to the rabbit lens.[26] Finally, the distribution clearance between the aqueous humor and the reservoir (QRESERVOIR) and the volume of the reservoir (VRESERVOIR) were adjusted to match the corresponding parameters in the original model. For details of the model building and parameters, see the Supporting Information. STELLA software (v8.1.1, isee systems) was used to construct the simulation model.
Kinetic simulations were carried out to estimate how drug partitioning into the lens might affect ocular pharmacokinetics after single and multiple doses of eye drops. […] The run time was 7 days and the delta time was 0.5 min.
Pharmacokinetic simulations
The pharmacokinetic simulation model was built on a model of topical timolol instillation4, where a lens compartment, separate from the reservoir compartment, was added . Experimental concentration -time data, extracted with Webplotdigitizer ( v4.2, https://automeris.io/WebPlotDig-itizer), in the aqueous humor and lens after topical dosing of timolol 5 was used as a basis for the […]
The timolol distribution clearance between aqueous humor and lens (QLENS), lens-buffer partition coefficient (Kp) and clearance from tear fluid to cornea (CL TF,CO) were obtained by com-paring the simulated curves with experimental in vivo data on timolol distribution in the rabbit […]
and QLENS values, the distribution clearance between aqueous humor and reservoir (QRESERVOIR) and volume of the reservoir (VRESERVOIR) were changed to match the corresponding parameters in the original model4 (Supplementary table 1).
Supplementary figure 6. Adjustment of the lens-aqueous humor partition coefficient (Kp), the clearance between aqueous humor and lens (QLENS) and clearance from tear fluid to cornea (CLTF,CO) with experimental data5.
(1 picture or pasted object on this page, not shown here)
Supplementary table 1. Parameters for the pharmacokinetic simulation model.

[9] = rabbit model parameter, cited from earlier work
[10] = rabbit, adjusted from original model
[11] = rabbit, adjusted with experimental in vivo data

Kp at 4 h [4]: 0.145 | share of total lens volume into which the drugs distributed [7]: 27.1%
Molecule: CC[C@@H]1C(=O)OC[C@@H]1Cc1cncn1C [pilocarpine]
lens Kp in previous reports [5]: about 0.3 | lens Kp, previous literature [6]: 0.3–1.0 | concentration in the lens in vivo compared with aqueous humor, iris and ciliary body [3]: much lower | distribution pattern in the lens (MALDI-IMS) [7]: only in the capsule and cortex of the lens but not in the nucleus

share of total lens volume into which the drugs distributed [7]: 27.1%
Molecule: CC(C)NCC(O)COc1cccc2[nH]ccc12 (centres unmarked) [pindolol]

Kp at 4 h (in vitro): 0.762 | share of total lens volume into which the drugs distributed [7]: 27.1%
Molecule: CC(C)NCC(O)COc1cccc2ccccc12 (centres unmarked) [propranolol]

QRESERVOIR (distribution clearance between aqueous humor and reservoir) [8, 10]: 11.888 µL/min | VRESERVOIR (reservoir volume) [8, 10]: 262 µL | CLTF,CO (clearance from tear fluid to cornea) [8, 11]: 1.3 µL/min | QLENS (distribution clearance between aqueous humor and lens) [8, 11]: 0.6 µL/min | Kp ([8]; topical, rabbit lens, adjusted manually to in vivo data on timolol distribution (Lee et al.), read-out: Kp (lens-buffer partition coefficient), model parameter): 0.35
Molecule: CC(C)(C)NC[C@H](O)COc1nsnc1N1CCOCC1 [timolol]
concentration in the lens in vivo compared with aqueous humor, iris and ciliary body [3]: much lower | kel (elimination rate constant) ([9]; aqueous humor, ref SI 4, 8): 0.057 min⁻¹ | CLTF,CJ (clearance from tear fluid by conjunctival absorption) ([9]; ref SI 4, 7): 10.4 µL/min

share of total lens volume into which the drugs distributed [7]: 27.1%
Molecule: Clc1ccc2nsnc2c1NC1=NCCN1 [tizanidine]
distribution pattern in the lens (MALDI-IMS) [7]: only in the capsule and cortex of the lens but not in the nucleus

Second part, the molecule before the results:

Molecule: CCCCCOc1ccc(C2SC(=O)NC2=O)cc1OCC (centres unmarked) [CT-112]
lens Kp in previous reports [1]: 8

Molecule: CCN(CC)c1ccc2c(-c3ccccc3C(=O)O)c3ccc(=[N+](CC)CC)cc-3oc2c1 [Rhodamine-B]
experimental log D7.0 [2]: 2

Molecule: C[C@@H]1C[C@H]2[C@@H]3CCC4=CC(=O)C=C[C@]4(C)[C@@]3(F)[C@@H](O)C[C@]2(C)[C@@]1(O)C(=O)CO [dexamethasone]
concentration in the lens in vivo compared with aqueous humor, iris and ciliary body [3]: much lower

Molecule: O=C(O)Cc1ccccc1Nc1c(Cl)cccc1Cl [diclofenac]
concentration equilibrium between incubate and lens at 4 h ([4]; porcine lens in vitro, incubation time 4 h (Figure S7)): would have required longer incubation time to reach true equilibria

Molecule: O=C1OC2(c3ccc(O)cc3Oc3cc(O)ccc32)c2ccccc21 [fluorescein sodium]
experimental log D7.0 [2]: 0.1

Molecule: CC(=O)/N=c1/sc(S(N)(=O)=O)nn1C [methazolamide]
Kp at 4 h [4]: 0.047

Molecule: Rhodamine-123
experimental log D7.0 [2]: 0.4
